Data as given in patent US20260250320A1, “LIPIDATED PEPTIDE INHIBITORS OF INTERLEUKIN-23 RECEPTOR” (Janssen Pharmaceutica NV, priority 2023, published 2026).
*1 amine or outer side, *2 acyl side, *3 side chain or, on linkers, in order; H or OH if unused. Where a SMILES comes first, the peptide text is derived from it. Bridges are numbered along the chain shown (N, C = ends). Roman numbers before positions name the chains, in order. Side-chain parts run from the residue outwards. [ ]: non-standard residue; d: D form. The star is where a group is joined. ξ: configuration not given here. X27 = C[N+](C)(CCNC(=O)COCCOCCNC(=O)COCCOCCNC(=O)CC[C@H](NC(=O)CCCCCCCCCCCCCCCCCCC(=O)O)C(=O)O)CC(=O)*; X35 = NCCOc1ccc(C[C@H](N[*:1])C(=O)CC(Cc2ccc3ccccc3c2)C(=O)[*:2])cc1; Me3N+CH2CH2(OCH2CH2)4CO = C[N+](C)(C)CCOCCOCCOCCOCCC(=O)*; Me3N+(CH2)2O(CH2)2O(CH2)2CO = C[N+](C)(C)CCOCCOCCC(=O)*; CH2CH2OCH2CH2OCH2CH2NMe3+ = C[N+](C)(C)CCOCCOCC*; Trp(7-Me) = Cc1cccc2c(C[C@H](N)C(=O)O)c[nH]c12; C20 diacid = O=C(O)CCCCCCCCCCCCCCCCCCC(=O)*; C18 diacid = O=C(O)CCCCCCCCCCCCCCCCC(=O)*; X6 = CN(CC[C@H](N[*:1])C(=O)[*:2])[*:3]; γGlu = O=C(O)[C@H](CCC(=O)[*:2])N[*:1]; 2Nal = N[C@@H](Cc1ccc2ccccc2c1)C(=O)O; AEF = NCCOc1ccc(C[C@H](N)C(=O)O)cc1; ξAEF = NCCOc1ccc(CC(N)C(=O)O)cc1; 3Pal = N[C@@H](Cc1cccnc1)C(=O)O; Lys(Me) = CNCCCC[C@H](N)C(=O)O; NMeK = CN[C@@H](CCCCN)C(=O)O; Pen = CC(C)(S)[C@H](N)C(=O)O; Thp = NC1(C(=O)O)CCOCC1; Abu = CC[C@H](N)C(=O)O; AEEA = NCCOCCOCC(=O)O; Sar = CNCC(=O)O

What was measured:
[1] = system: IL-23-stimulated phosphorylated STAT3 in peripheral blood mononuclear cells (PBMCs); test: PBMC pSTAT3 Assay; assay type: cell-based; settings: PBMCs from healthy donors; 30 min preincubation with peptide; IL-23 5 ng/mL for 30 min; phospho-STAT3 by MSD
Outline: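 Healthy-donor PBMCs expanded 4 days on anti-CD3 with 100 ng/mL IL-1β, starved ~4 h in RPMI-0.1% BSA, preincubated 30 min with peptide, then stimulated 30 min at 37 °C with 5 ng/mL IL-23. Lysate pSTAT3 measured by MSD phospho-STAT panel; IC50 derived.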

IL-23R = biological target: T1, IL-23R (Homo sapiens, UniProt Q5VWK5); test: IL23R Reporter Assay; assay type: cell-based; settings: HEK293 cells containing IL-23R, IL-12Rβ1 and STAT-inducible firefly luciferase reporter; 10 ng/mL IL-23 (EC90); 5 h
T1 construct: HEK293 cells containing IL-23R, IL-12Rβ1 and a firefly luciferase reporter gene driven by a STAT-inducible promoter (Promega); host or cells: HEK293
T1 sequence (Q5VWK5 24-629): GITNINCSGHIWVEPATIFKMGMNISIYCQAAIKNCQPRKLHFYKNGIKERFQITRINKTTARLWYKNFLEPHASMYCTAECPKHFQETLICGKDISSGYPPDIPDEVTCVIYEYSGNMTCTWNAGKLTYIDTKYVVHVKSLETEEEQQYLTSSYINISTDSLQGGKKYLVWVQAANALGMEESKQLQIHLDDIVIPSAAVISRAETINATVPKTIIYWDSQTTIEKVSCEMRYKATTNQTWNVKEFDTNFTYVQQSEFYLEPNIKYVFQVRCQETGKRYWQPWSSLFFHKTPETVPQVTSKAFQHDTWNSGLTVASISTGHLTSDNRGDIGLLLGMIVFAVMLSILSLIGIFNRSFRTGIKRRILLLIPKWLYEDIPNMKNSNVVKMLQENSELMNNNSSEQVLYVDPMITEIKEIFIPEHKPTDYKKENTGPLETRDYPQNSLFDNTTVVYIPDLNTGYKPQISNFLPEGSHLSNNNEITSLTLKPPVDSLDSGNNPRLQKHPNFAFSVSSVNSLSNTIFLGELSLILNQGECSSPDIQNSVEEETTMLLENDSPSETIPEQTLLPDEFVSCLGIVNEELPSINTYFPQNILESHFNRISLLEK
Outline: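 HEK293 cells carrying IL-23R, IL-12Rβ1 and a STAT-driven firefly luciferase reporter (4000 cells/well) received compound, then 10 ng/mL IL-23 solution (EC90), and were incubated for 5 h at 37° C. BioGlo luminescence was normalised to IL-23 alone (0%) and 30 μM control inhibitor (100%). IC50 came from a 4-parameter Hill fit.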

SMILES	IC50 (IL-23R) [nM]	IC50 [1] [nM]
CC(=O)NCCCC[C@@H]1NC(=O)[C@H](Cc2c[nH]c3c(C)cccc23)NC(=O)[C@H]([C@@H](C)O)NC(=O)[C@H](CC(N)=O)NC(=O)[C@@H](NC(C)=O)C(C)(C)SSC(C)(C)[C@@H](C(=O)N[C@@H](Cc2ccc(OCCN)cc2)C(=O)N[C@@H](Cc2ccc3ccccc3c2)C(=O)NC2(C(=O)N[C@@H](CCC(=O)O)C(=O)N[C@@H](CC(N)=O)C(=O)N[C@@H](Cc3cccnc3)C(=O)N(C)CC(=O)OCCOCCOCCNC(=O)COCCOCCNC(=O)CC[C@H](NC(=O)CCCCCCCCCCCCCCCCC(=O)O)C(=O)O)CCOCC2)NC1=O [compound 147, MeCO-Pen(3)-N-T-7MeW-K(Ac)-Pen(3)-AEF-2Nal-THP-E-N-3Pya-Sar-CO(PEG2PEG2gEC18OH)]	≥ 500	0.5 to 5
CC(=O)NCCCC[C@@H]1NC(=O)[C@H](Cc2c[nH]c3c(C)cccc23)NC(=O)[C@H]([C@@H](C)O)NC(=O)[C@H](CC(N)=O)NC(=O)[C@@H](NC(C)=O)C(C)(C)SSC(C)(C)[C@@H](C(=O)N[C@@H](Cc2ccc(OCCN)cc2)C(=O)CC(Cc2ccc3ccccc3c2)C(=O)NC2(C(=O)N[C@@H](CCC(=O)O)C(=O)N[C@@H](CC(N)=O)C(=O)N[C@@H](Cc3cccnc3)C(=O)N(C)CC(=O)N[C@@H](CCCCNC(=O)COCCOCCNC(=O)COCCOCCNC(=O)CC[C@H](NC(=O)CCCCCCCCCCCCCCCCC(=O)O)C(=O)O)C(=O)N(C)C)CCOCC2)NC1=O (stereo partly drawn) [compound 149, MeCO-Pen(3)-N-T-7MeW-K(Ac)-Pen(3)-AEF-2Nal-THP-E-N-3Pya-Sar-K(PEG2PEG2gEC18OH)-CON(Me)2] (I: Ac-[Pen]NT[Trp(7-Me)]K(Ac)[Pen] / II: [Thp]EN[3Pal][Sar]K([AEEA-AEEA-γGlu-C18 diacid])-NMe2; disulfide I:1-I:6; linker I:C-II:N via X35)	≥ 500	≥ 5
CC(=O)NCCCC[C@@H]1NC(=O)[C@H](Cc2c[nH]c3c(C)cccc23)NC(=O)[C@H]([C@@H](C)O)NC(=O)[C@H](CC(N)=O)NC(=O)[C@@H](NC(=O)O)CCCC[C@@H](C(=O)N[C@@H](Cc2ccc(OCCN)cc2)C(=O)N[C@@H](Cc2ccc3ccccc3c2)C(=O)NC2(C(=O)N[C@@H](CCC(=O)O)C(=O)N[C@@H](CC(N)=O)C(=O)N[C@@H](Cc3cccnc3)C(=O)N(C)CC(=O)C[C@@H](CCCCNC(=O)COCCOCCNC(=O)COCCOCCNC(=O)CC[C@H](NC(=O)CCCCCCCCCCCCCCCC(=O)O)C(=O)O)C(=O)NCCOCCOCC[N+](C)(C)C)CCOCC2)NC1=O [compound 150, MeCO-Pen(3)-N-T-7MeW-K(Ac)-Pen(3)-AEF-2Nal-THP-E-N-3Pya-Sar-K(PEG2PEG2gEC18OH)-CONH(PEG3a)]	≥ 500	≥ 5
CC(=O)N(C)CCCC[C@@H]1NC(=O)[C@H](Cc2c[nH]c3c(C)cccc23)NC(=O)[C@H]([C@@H](C)O)NC(=O)[C@H](CC(=O)N(C)C)NC(=O)[C@@H](NC(=O)CCOCCOCC[N+](C)(C)C)C(C)(C)SSC(C)(C)[C@@H](C(=O)N[C@@H](Cc2ccc(OCCNC(=O)C[N+](C)(C)CCNC(=O)COCCOCCNC(=O)COCCOCCNC(=O)CC[C@H](NC(=O)CCCCCCCCCCCCCCCCCCC(=O)O)C(=O)O)cc2)C(=O)N[C@@H](Cc2ccc3ccccc3c2)C(=O)NC2(C(=O)N[C@@H](CCCCN(C)C(C)=O)C(=O)N[C@@H](CC(N)=O)C(=O)N[C@@H](Cc3cccnc3)C(=O)N(C)CC(=O)N(C)C)CCOCC2)NC1=O [compound 151, cPEG3aCO-Pen(3)-N(N(Me)2)-T-7MeW-K(NMeAc)-Pen(3)-AEF(SP6PEG2PEG2gEC20OH)-2Nal-THP-K(NMeAc)-N-3Pya-Sar-CON(Me)2] ({Me3N+(CH2)2O(CH2)2O(CH2)2CO}-[Pen]D(NMe2)T[Trp(7-Me)][Lys(Me)](Ac)[Pen][AEF](X27)[2Nal][Thp][Lys(Me)](Ac)N[3Pal][Sar]-NMe2; disulfide 1-6)	< 50	< 0.5
CC(=O)N(C)CCCC[C@H](CC(=O)C1(NC(=O)[C@H](Cc2ccc3ccccc3c2)NC(=O)[C@H](Cc2ccc(OCCNC(=O)C[N+](C)(C)CCNC(=O)COCCOCCNC(=O)COCCOCCNC(=O)CC[C@H](NC(=O)CCCCCCCCCCCCCCCCC(=O)O)C(=O)O)cc2)NC(=O)[C@@H]2CCCCC(C)[C@H](NC(=O)CCOCCOCC[N+](C)(C)C)C(=O)N[C@@H](CC(=O)N(C)C)N[C@@H]([C@@H](C)O)C(=O)N[C@@H](Cc3c[nH]c4c(C)cccc34)C(=O)N[C@@H](CCCCN(C)C(C)=O)C(=O)N2)CCOCC1)C(=O)C[C@@H](CC(N)=O)C(=O)N[C@@H](Cc1cccnc1)C(=O)N(C)CC(=O)N(C)C (stereo partly drawn) [compound 154, cPEG3aCO-Pen(3)-N(N(Me)2)-T-7MeW-K(NMeAc)-Pen(3)-AEF(SP6PEG2PEG2gEC18OH)-2Nal-THP-K(NMeAc)-N-3Pya-Sar-CON(Me)2]	< 50	< 0.5

Continued, in another order:

IC50 (IL-23R) [nM]	SMILES	IC50 [1] [nM]
50 to 500	CC(=O)N(C)CCCC[C@@H]1NC(=O)[C@H](Cc2c[nH]c3c(C)cccc23)NC(=O)[C@H]([C@@H](C)O)NC(=O)[C@H](CC(=O)N(C)C)NC(=O)[C@@H](N)C(C)(C)SSC(C)(C)[C@@H](C(=O)N[C@@H](Cc2ccc(OCCOCCOCC[N+](C)(C)C)cc2)C(=O)N[C@@H](Cc2ccc3ccccc3c2)C(=O)NC2(C(=O)N[C@@H](CCCCN(C)C(C)=O)C(=O)N[C@@H](CC(N)=O)C(=O)N[C@@H](Cc3cccnc3)C(=O)N(C)CC(=O)N[C@@H](CCCCNC(=O)COCCOCCNC(=O)COCCOCCNC(=O)CC[C@H](NC(=O)CCCCCCCCCCCCCCCCC(=O)O)C(=O)O)C(=O)N(C)C)CCOCC2)NC1=O [compound 148, cPEG3aCO-Pen(3)-N(N(Me)2)-T-7MeW-K(NMeAc)-Pen(3)-APEC3F-2Nal-THP-K(NMeAc)-N-3Pya-Sar-K(PEG2PEG2gEC18OH)-CON(Me)2] (H-[Pen]D(NMe2)T[Trp(7-Me)][Lys(Me)](Ac)[Pen]Y(CH2CH2OCH2CH2OCH2CH2NMe3+)[2Nal][Thp][Lys(Me)](Ac)N[3Pal][Sar]K([AEEA-AEEA-γGlu-C18 diacid])-NMe2; disulfide 1-6)	< 0.5
50 to 500	CC[C@@H]1NC(=O)[C@H](Cc2c[nH]c3c(C)cccc23)NC(=O)[C@H]([C@@H](C)O)NC(=O)[C@H](CC(=O)N(C)C)NC(=O)[C@@H](NC(=O)CCOCCOCCOCCOCC[N+](C)(C)C)C(C)(C)SSC(C)(C)[C@@H](C(=O)NC(Cc2ccc(OCCN)cc2)C(=O)N[C@@H](Cc2ccc3ccccc3c2)C(=O)NC2(C(=O)N[C@@H](CCC(=O)O)C(=O)N[C@@H](CC(N)=O)C(=O)N[C@@H](Cc3cccnc3)C(=O)N(C)[C@@H](CCCCNC(=O)COCCOCCNC(=O)COCCOCCNC(=O)CC[C@H](NC(=O)CCCCCCCCCCCCCCCCCCC(=O)O)C(=O)O)C(N)=O)CCOCC2)NC1=O (stereo partly shown) [compound 152, cPEG5aCO-Pen(3)-N(N(Me)2)-T-7MeW-Dab(NMecPEG5A)-Pen(3)-AEF-2Nal-THP-E-N-3Pya-NMeK(PEG2PEG2gEC20OH)-CONH2] ({Me3N+CH2CH2(OCH2CH2)4CO}-[Pen]D(NMe2)T[Trp(7-Me)][Abu][Pen][ξAEF][2Nal][Thp]EN[3Pal][NMeK]([AEEA-AEEA-γGlu-C20 diacid])-NH2; disulfide 1-6)	< 0.5
50 to 500	Cc1cccc2c(C[C@@H]3NC(=O)[C@H]([C@@H](C)O)NC(=O)[C@H](CC(=O)N(C)C)NC(=O)[C@@H](NC(=O)CCOCCOCCOCCOCC[N+](C)(C)C)C(C)(C)SSC(C)(C)[C@@H](C(=O)NC(Cc4ccc(OCCN)cc4)C(=O)N[C@@H](Cc4ccc5ccccc5c4)C(=O)NC4(C(=O)N[C@@H](CCC(=O)O)C(=O)N[C@@H](CC(N)=O)C(=O)N[C@@H](Cc5cccnc5)C(=O)N(C)[C@@H](CCCCNC(=O)COCCOCCNC(=O)COCCOCCNC(=O)CC[C@H](NC(=O)CCCCCCCCCCCCCCCCC(=O)O)C(=O)O)C(N)=O)CCOCC4)NC(=O)[C@H](CCN(C)C(=O)CCOCCOCCOCCOCC[N+](C)(C)C)NC3=O)c[nH]c12 (stereo partly shown) [compound 153, cPEG5aCO-Pen(3)-N(N(Me)2)-T-7MeW-Dab(NMecPEG5a)-Pen(3)-AEF-2Nal-THP-E-N-3Pya-NMeK(PEG2PEG2gEC18OH)-CONH2] ({Me3N+CH2CH2(OCH2CH2)4CO}-[Pen]D(NMe2)T[Trp(7-Me)][X6](Me3N+CH2CH2(OCH2CH2)4CO)[Pen][ξAEF][2Nal][Thp]EN[3Pal][NMeK]([AEEA-AEEA-γGlu-C18 diacid])-NH2; disulfide 1-6)	< 0.5
